Experimental data as given in patent US8735632B2, “Compounds” (DSM IP Assets B.V., priority 2009, dated 2014).

How the values were obtained:
Type in all cases: physicochemical
[1] = Solubility in C12-15 alkyl benzoate: saturation of the solvent, content in the supernatant by HPLC; conditions: pure cosmetic solvent
[2] = Solubility of BMDBM/BEMT in 1:1 (w/w) mixture C12-15 alkyl benzoate/PG-UVB, stored 1 month at RT, no re-crystallization
[3] = Reduction of solvent necessary to dissolve solid UV-filter; conditions: for reduction of the cosmetic solvent necessary to dissolve BMDBM: with PG-UVB 1:1
[4] = C12-15 alkyl benzoate/PG-UVB 1:1 versus C12-15 alkyl benzoate

Compound | Solubility in C12-15 alkyl benzoate [1] [wt.-%] | Δ solubility related to cosmetic solvent ([2]; C12-15 alkyl benzoate/PG-UVB 1:1) | Increase of solubility BMDBM/BEMT [2, 4] | Δ solubility [2, 4] | reduction of the cosmetic solvent necessary to dissolve BMDBM ([3]; C12-15 alkyl benzoate) [%] | reduction of the cosmetic solvent necessary to dissolve BMDBM ([3]; diisopropyl sebacate) [%] | amount of 1:1 (w/w) mixture of PG-UVB and C12-15 alkyl benzoate necessary to dissolve 0.5 g BMDBM ([3]; with PG-UVB of example 1) [g] | amount of 1:1 (w/w) mixture of PG-UVB and diisopropyl sebacate needed to dissolve 0.5 g BMDBM ([3]; with PG-UVB of example 1) [g]
CCCCC(CC)COc1ccc(-c2nc(-c3ccc(OC)cc3)nc(-c3ccc(OCC(CC)CCCC)cc3O)n2)c(O)c1 (centres unmarked) [BEMT, bis-ethylhexyloxyphenol methoxyphenyl triazine] | 13 | +13.5 wt.-% | +54% | +7 wt.-% | – | – | – | –
butyl methoxydibenzoylmethane [BMDBM] | – | – | – | – | 75 | 65 | 1.5 | 1.4
